Laboratory results taken from patent publication US20250215039A1, “NUCLEOSIDES FOR TREATING CANCER” (PRIMEFOUR THERAPEUTICS, INC., priority 2022, published 2025).
Like-named read-outs stand apart in the source and are kept apart here.

Test system: cancer cell lines
Assay: Cancer cell proliferation activity (CellTiterGlo, 72 h)
Format: cell-based
Details: 72 h, 72 h, read-out: IC50
Procedure, shortened: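 Cells seeded overnight at 37 °C, then dosed with compound at 0.1% final DMSO and incubated 72 h at 37 °C (5% or 10% CO2 by medium).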

C[C@]1(CO)O[C@@H](n2cnc3c(N)nc(F)nc32)C[C@@H]1O [Cpd. No. 126, (2R,3S,5R)-5-(6-amino-2-fluoro-9H-purin-9-yl)-2-(hydroxymethyl)-2-methyltetrahydrofuran-3-ol]
IC50 (5637 cell line (bladder)): 1000 nM | IC50 (CLS439 cell line (bladder)): > 50000 nM | IC50 (HS729 cell line (muscle)): 1360 nM | IC50 (HSS78T cell line): 820 nM | IC50 (JAR cell line (placenta)): 460 nM | IC50 (SKMELS cell line): > 50000 nM | IC50 (Homo sapiens, 22Rv1, 72 h, 22RV1 cell line (prostate)): 1570 nM | IC50 (Homo sapiens, 786-0, 72 h, 786O cell line (kidney)): 520 nM | IC50 (Homo sapiens, A204, 72 h, A204 cell line (muscle)): 290 nM | IC50 (Homo sapiens, A549, 72 h, A549 cell line): > 50000 nM | IC50 (Homo sapiens, A673, 72 h, A673 cell line (bone)): 2310 nM | IC50 (Homo sapiens, A2780, 72 h, A2780 cell line (ovary)): 1260 nM | IC50 (Homo sapiens, A-375, 72 h, A375 cell line (skin)): 260 nM | IC50 (Homo sapiens, A-431, 72 h, A431 cell line (skin)): 340 nM | IC50 (Homo sapiens, ACHN, ACHN cell line (kidney)): 3300 nM | IC50 (Homo sapiens, ASPC1, 72 h, ASPC1 cell line (pancreas)): 420 nM | IC50 (Homo sapiens, BT-20, 72 h, BT20 cell line (breast)): 520 nM | IC50 (Homo sapiens, BXPC-3, 72 h, BXPC3 cell line (pancreas)): > 50000 nM | IC50 (Homo sapiens, C-33-A, C33A cell line (cervical)): 1790 nM | IC50 (Homo sapiens, CAKI-1, 72 h, CAKI1 cell line (kidney)): 30 nM | IC50 (Homo sapiens, COLO 205, 72 h, COLO205 cell line (colon)): 1300 nM | IC50 (Homo sapiens, COLO-678, 72 h, COLO678 cell line (colon)): 5810 nM | IC50 (Homo sapiens, Ca-Ski, CASKI cell line (cervical)): 260 nM | IC50 (Homo sapiens, Caco-2, 72 h, CACO2 cell line (colon)): 720 nM | IC50 (Homo sapiens, Calu-6, 72 h, CALU6 cell line (lung)): 610 nM | IC50 (Homo sapiens, DLD-1, 72 h, DLD1 cell line (colon)): 1980 nM | IC50 (Homo sapiens, DU-145, 72 h, DU145 cell line (prostate)): 120 nM | IC50 (Homo sapiens, EFO-21, 72 h, EFO21 cell line (ovary)): 570 nM | IC50 (Homo sapiens, EJ-28, 72 h, EJ28 cell line (bladder)): 560 nM | IC50 (Homo sapiens, Granta-519, 72 h, GRANTA-519 cell line (hematological)): 1030 nM | IC50 (Homo sapiens, HCT-15, 72 h, HCT15 cell line (colon)): 1810 nM | IC50 (Homo sapiens, HCT-116, 72 h, HCT116 cell line (colon)): 930 nM | IC50 (Homo sapiens, HEK293, 72 h, HEK293 cell line (kidney)): 740 nM | IC50 (Homo sapiens, HL-60, 72 h, HL-60 cell line (hematological)): 520 nM | IC50 (Homo sapiens, HT-29, 72 h, HT29 cell line (colon)): 420 nM | IC50 (Homo sapiens, HT-1080, 72 h, HT1080 cell line (connective tissue)): > 50000 nM | IC50 (Homo sapiens, HeLa, HELA cell line (cervical)): 550 nM | IC50 (Homo sapiens, HepG2, 72 h, HEPG2 cell line (liver)): 790 nM | IC50 (Homo sapiens, IGROV-1, 72 h, IGROV1 cell line (ovary)): 430 nM | IC50 (Homo sapiens, IMR-90, 72 h, IMR.90 cell line): 910 nM | IC50 (Homo sapiens, J82, 72 h, J82 cell line (bladder)): 540 nM | IC50 (Homo sapiens, JEG-3, 72 h, JEG3 cell line (placenta)): 370 nM | IC50 (Homo sapiens, JIMT-1, 72 h, JIMT1 cell line (breast)): 70 nM | IC50 (Homo sapiens, K562, 72 h, K-562 cell line (hematological)): > 50000 nM | IC50 (Homo sapiens, Kasumi 1, 72 h, KASUMI-1 cell line (hematological)): 60 nM | IC50 (Homo sapiens, L-363, 72 h, L-363 cell line (hematological)): 690 nM | IC50 (Homo sapiens, LoVo, LOVO cell line (colon)): 260 nM | IC50 (Homo sapiens, MCF7, 72 h, MCF7 cell line (breast)): > 50000 nM | IC50 (Homo sapiens, MDA-MB-231, 72 h, MDAMB231 cell line (breast)): 2690 nM | IC50 (Homo sapiens, MDA-MB-435, 72 h, MDAMB435 cell line (skin)): 1250 nM | IC50 (Homo sapiens, MDA-MB-436, 72 h, MDAMB436 cell line (breast)): 250 nM | IC50 (Homo sapiens, MDA-MB-468, 72 h, MDAMB468 cell line (breast)): 790 nM | IC50 (Homo sapiens, MG-63, 72 h, MG63 cell line (bone)): > 50000 nM | IC50 (Homo sapiens, MHH-ES-1, 72 h, MHHES1 cell line (bone)): 860 nM | IC50 (Homo sapiens, MIA PaCa-2, 72 h, MIAPACA2 cell line (pancreas)): > 50000 nM | IC50 (Homo sapiens, MINO, MINO cell line (hematological)): 120 nM | IC50 (Homo sapiens, MV4-11, 72 h, MV4-11 cell line (hematological)): 70 nM | IC50 (Homo sapiens, NCI-H23, 72 h, NCI-H23 cell line (lung)): 480 nM | IC50 (Homo sapiens, NCI-H82, 72 h, NCIH82 cell line (lung)): 610 nM | IC50 (Homo sapiens, NCI-H292, 72 h, NCIH292 cell line (lung)): 5310 nM | IC50 (Homo sapiens, NCI-H460, 72 h, NCIH460 cell line (lung)): 620 nM | IC50 (Homo sapiens, OVCAR-3, 72 h, OVCAR3 cell line (ovary)): 140 nM | IC50 (Homo sapiens, OVCAR-4, 72 h, OVCAR4 cell line (ovary)): 740 nM | IC50 (Homo sapiens, PANC-1, 72 h, PANC1 cell line (pancreas)): > 50000 nM | IC50 (Homo sapiens, PC-3, 72 h, PC3 cell line (prostate)): 1090 nM | IC50 (Homo sapiens, PLC-PRF-5, 72 h, PLCPRF5 cell line (liver)): 2160 nM | IC50 (Homo sapiens, Panc1005, 72 h, PANC1005 cell line (pancreas)): 240 nM | IC50 (Homo sapiens, RD, RD cell line (muscle)): 2320 nM | IC50 (Homo sapiens, Ramos, RAMOS cell line (hematological)): 560 nM | IC50 (Homo sapiens, SAOS-2, 72 h, SAOS2 cell line (bone)): 270 nM | IC50 (Homo sapiens, SF-268, 72 h, SF268 cell line (brain)): > 50000 nM | IC50 (Homo sapiens, SF-295, 72 h, SF295 cell line (brain)): 1940 nM | IC50 (Homo sapiens, SK-BR-3, 72 h, SKBR3 cell line (breast)): 100 nM | IC50 (Homo sapiens, SK-HEP1, 72 h, SKHEP1 cell line (liver)): 4780 nM | IC50 (Homo sapiens, SK-LMS-1, 72 h, SKLMS1 cell line (uterus)): 600 nM | IC50 (Homo sapiens, SK-MEL-28, 72 h, SKMEL28 cell line (skin)): 1180 nM | IC50 (Homo sapiens, SK-N-AS, SKNAS cell line (brain)): 780 nM | IC50 (Homo sapiens, SK-N-SH, SKNSH cell line (brain)): 640 nM | IC50 (Homo sapiens, SK-OV-3, 72 h, SKOV3 cell line (ovary)): 1030 nM | IC50 (Homo sapiens, SNB-75, 72 h, SNB75 cell line (brain)): 2600 nM | IC50 (Homo sapiens, SU-DHL10, 72 h, SU-DHL-10 cell line (hematological)): 460 nM | IC50 (Homo sapiens, SU-DHL-6, 72 h, SU-DHL-6 cell line (hematological)): 360 nM | IC50 (Homo sapiens, SW-620, 72 h, SW620 cell line (colon)): 570 nM | IC50 (Homo sapiens, T-24, 72 h, T24 cell line (bladder)): 920 nM | IC50 (Homo sapiens, TE-671, 72 h, TE671 cell line (muscle)): 3140 nM | IC50 (Homo sapiens, THP-1, 72 h, THP-1 cell line (hematological)): 110 nM | IC50 (Homo sapiens, U2OS, U2OS cell line (bone)): 1120 nM | IC50 (Homo sapiens, U-87 MG, U87MG cell line (brain)): 5620 nM | IC50 (Homo sapiens, UMUC3, 72 h, UMUC3 cell line (bladder)): > 50000 nM | IC50 (Homo sapiens, UO-31, 72 h, UO31 cell line (kidney)): 300 nM | IC50 (Homo sapiens, WSU-NHL, WSU-NHL cell line (hematological)): 560 nM | IC50 (MT-3, 72 h, MT3 cell line (breast)): 500 nM | IC50 (NCI-H358M, NCIH358M cell line (lung)): 300 nM | IC50 (PBMC, PBMC (hematological)): 1990 nM | IC50 (RD-ES, RDES cell line (bone)): 370 nM
